Paper PMC3091354 (Journal of chromatography. B, Analytical technologies in …, 2011)
Several values for one entry are separate records, joined by “and”; a condition that tells them apart may be missing. Equal entries are not always repeated. Where two headings read alike, the source gives them in different places.

Legend:
[1] = assay type: in vivo; conditions: mouse; for Tmax / MRT inf: male, C57BL/6N, ip
[2] = assay type: in vivo; conditions: mouse; for concentration at 1 week: male, C57BL/6N, oral; for Concentration in brain: 1 week
[3] = Stability of 3-MoSA in mouse brain homogenate to freezing; assay type: physicochemical; conditions: storage 7 months at −80°C
[4] = system: cells; conditions: all cells tested; cited from earlier work
[5] = single i.p. 200 mg/kg, plasma, 200 mg/kg

SMILES: COc1cccc(CN)c1O [3-MoSA, 3-methoxy-2-hydroxybenzylamine]
- Tmax ([1]; brain, 200 mg/kg): 15 min
- MRT inf ([1]; heart, 200 mg/kg): 54 min
- Tmax ([1]; heart, 200 mg/kg): 15 min
- MRT inf ([1]; kidney, 200 mg/kg): 54 min
- Tmax ([1]; kidney, 200 mg/kg): 30 min
- MRT inf ([1]; liver, 200 mg/kg): 60 min
- Tmax ([1]; liver, 200 mg/kg): 15 min
- Tmax ([1]; plasma, 200 mg/kg): 30 min
- MRT inf ([1]; spleen, 200 mg/kg): 60 min
- Tmax ([1]; spleen, 200 mg/kg): 15 min
- Time to distribution to heart, spleen, liver and kidneys after administration ([1]; single i.p. 200 mg/kg): 15 to 30 min
- Time of maximum brain concentration (CBmax) ([1]; single i.p. 200 mg/kg, brain): 15 min
- Cmax, brain ([1]; single i.p. 200 mg/kg, brain, 200 mg/kg): 1395 ± 207 µg/g and 1395.3 ± 207.0 µg/g
- AUC (0-t), heart ([1]; single i.p. 200 mg/kg, heart): 546.7 ± 52.4 µg·h/g
- AUC (0-t), kidney ([1]; single i.p. 200 mg/kg, kidney): 1981.6 ± 174.0 µg·h/g
- Cmax, kidney ([1]; single i.p. 200 mg/kg, kidney): 1703.1 ± 146.1 µg/g
- AUC (0-t), liver ([1]; single i.p. 200 mg/kg, liver): 540.4 ± 37.1 µg·h/g
- Cmax, liver ([1]; single i.p. 200 mg/kg, liver): 880.4 ± 122.3 µg/g
- Drug accumulation over time in organs ([1]; single i.p. 200 mg/kg, organs studied): no evidence of specific drug accumulation over time
- AUC (0-t), plasma [1, 5]: 361.5 ± 41.6 µg·h/mL
- CL/F (total body clearance) [1, 5]: 544.1 L/h/kg
- Cmax, plasma [1, 5]: 342600 ± 56400 ng/mL
- Elimination t1/2, plasma [1, 5]: 36 min
- V/F (apparent volume of distribution, Vd/F) [1, 5]: 486.4 L/kg
- AUC (0-t), spleen ([1]; single i.p. 200 mg/kg, spleen): 734.5 ± 60.7 µg·h/g
- Time after injection up to which 3-MoSA was detectable in tissue ([1]; single i.p. 200 mg/kg, tissue): up to 4 h
- concentration at 1 week ([2]; brain, 3 g/l, Concentration in brain, drink at 3 g/l): 18000 ng/g
- concentration at 1 week ([2]; brain, 5 g/l, Concentration in brain, drink at 5 g/l): 25000 ng/g
- concentration at 1 week ([2]; brain, 7 g/l, Concentration in brain, drink at 7 g/l): 38000 ng/g
- concentration at 1 week ([2]; brain, 10 g/l, Concentration in brain, drink at 10 g/l): 82000 ng/g
- concentration at 1 week ([2]; heart, 3 g/l, Concentration in heart, drink at 3 g/l): 23900 ± 6500 ng/g
- concentration at 1 week ([2]; heart, 5 g/l, Concentration in heart, drink at 5 g/l): 46300 ± 6000 ng/g
- concentration at 1 week ([2]; heart, 7 g/l, Concentration in heart, drink at 7 g/l): 53500 ± 8100 ng/g
- concentration at 1 week ([2]; heart, 10 g/l, Concentration in heart, drink at 10 g/l): 60200 ± 8700 ng/g
- concentration at 1 week ([2]; kidney, 3 g/l, Concentration in kidney, drink at 3 g/l): 91100 ± 16300 ng/g
- concentration at 1 week ([2]; kidney, 5 g/l, Concentration in kidney, drink at 5 g/l): 155000 ± 20300 ng/g
- concentration at 1 week ([2]; kidney, 7 g/l, Concentration in kidney, drink at 7 g/l): 210000 ± 13100 ng/g
- concentration at 1 week ([2]; kidney, 10 g/l, Concentration in kidney, drink at 10 g/l): 212000 ± 17400 ng/g
- concentration at 1 week ([2]; liver, 3 g/l, Concentration in liver, drink at 3 g/l): 74100 ± 11700 ng/g
- concentration at 1 week ([2]; liver, 5 g/l, Concentration in liver, drink at 5 g/l): 204000 ± 22000 ng/g
- concentration at 1 week ([2]; liver, 7 g/l, Concentration in liver, drink at 7 g/l): 252000 ± 24300 ng/g
- concentration at 1 week ([2]; liver, 10 g/l, Concentration in liver, drink at 10 g/l): 259000 ± 26200 ng/g
- concentration at 1 week ([2]; plasma, 3 g/l, Concentration in plasma, drink at 3 g/l): 4000 ± 1000 ng/mL
- concentration at 1 week ([2]; plasma, 5 g/l, Concentration in plasma, drink at 5 g/l): 5400 ± 1100 ng/mL
- concentration at 1 week ([2]; plasma, 7 g/l, Concentration in plasma, drink at 7 g/l): 10800 ± 1600 ng/mL
- concentration at 1 week ([2]; plasma, 10 g/l, Concentration in plasma, drink at 10 g/l): 11500 ± 1200 ng/mL
- concentration at 1 week ([2]; spleen, 3 g/l, Concentration in spleen, drink at 3 g/l): 46600 ± 7900 ng/g
- concentration at 1 week ([2]; spleen, 5 g/l, Concentration in spleen, drink at 5 g/l): 82200 ± 7200 ng/g
- concentration at 1 week ([2]; spleen, 7 g/l, Concentration in spleen, drink at 7 g/l): 185000 ± 11600 ng/g
- concentration at 1 week ([2]; spleen, 10 g/l, Concentration in spleen, drink at 10 g/l): 192000 ± 23600 ng/g
- Concentration in brain ([2]; drink at 3 g/l): 18.1 ± 4.4 µg of 3-MoSA/g of tissue
- Concentration in brain ([2]; drink at 5 g/l): 24.7 ± 3.1 µg of 3-MoSA/g of tissue
- Concentration in brain ([2]; drink at 7 g/l): 37.6 ± 0.8 µg of 3-MoSA/g of tissue
- Concentration in brain ([2]; drink at 10 g/l): 82.3 ± 24.5 µg of 3-MoSA/g of tissue
- Stability: fraction recovered after storage [3]: 77% and 76.87%
- Cytotoxicity [4]: not cytotoxic
